pKi: −log10 of the molar value. Converted amounts (≈) assume the structure as drawn.
Key:
[1] = Half life in C57BL/6 mouse at 2 mg/kg, sc by LC-MS analysis; assay type: ADME, organism-based; conditions: in vivo
[2] = Equilibrium solubility of compound in water incubated for 24 hrs by UV-spectroscopy method; assay type: physicochemical
[3] = Tmax in C57BL/6 mouse at 2 mg/kg, sc by LC-MS analysis; assay type: ADME, organism-based; conditions: in vivo
[4] = Toxicity in wild type mouse assessed as effect on body weight; conditions: in vivo
[5] = Cmax in C57BL/6 mouse at 2 mg/kg, sc by LC-MS analysis; assay type: ADME, organism-based; parameters: dose 2 mg/kg, route sc; conditions: in vivo
[6] = Toxicity in wild type mouse assessed as effect on kidney size; conditions: in vivo
[7] = AUC (0 to t) in C57BL/6 mouse at 2 mg/kg, sc by LC-MS analysis; assay type: ADME, organism-based; parameters: dose 2 mg/kg, route sc; conditions: in vivo
[8] = Elimination rate constant in C57BL/6 mouse at 2 mg/kg, sc by LC-MS analysis; assay type: ADME, organism-based; conditions: in vivo
[9] = Toxicity in wild type mouse assessed as effect on body weight at 2 mg/kg; assay type: organism-based; conditions: in vivo
[10] = target: Vasopressin V2 receptor (Rattus norvegicus) (UniProt Q00788); experiment: Ex vivo receptor occupancy at V2R in isolated perfused Sprague-Dawley rat kidney assessed as dissociation half life at 0.1 uM incubated for 30 mins by LC-MS analysis; assay type: functional, tissue-based
Chain of Vasopressin V2 receptor (Rattus norvegicus) (Q00788 whole entry, the tested form may be a part): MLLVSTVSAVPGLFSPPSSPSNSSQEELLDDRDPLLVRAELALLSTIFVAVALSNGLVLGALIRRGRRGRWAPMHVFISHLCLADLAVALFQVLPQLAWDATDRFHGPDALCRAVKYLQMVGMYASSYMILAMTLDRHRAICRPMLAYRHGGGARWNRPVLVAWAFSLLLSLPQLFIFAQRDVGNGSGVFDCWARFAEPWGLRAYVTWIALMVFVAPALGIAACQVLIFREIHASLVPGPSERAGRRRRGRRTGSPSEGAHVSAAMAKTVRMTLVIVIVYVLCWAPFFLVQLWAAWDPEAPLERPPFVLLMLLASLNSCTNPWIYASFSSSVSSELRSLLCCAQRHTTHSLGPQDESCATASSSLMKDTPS

Vasopressin V2 receptor = Vasopressin V2 receptor (Homo sapiens, UniProt P30518); experiment: Displacement of conivaptan-red from SNAP-tagged V2 receptor (unknown origin) expressed in HEK293 cells assessed as inhibition constant measured after 2 hrs by HTRF assay; assay type: cell-based
Chain of Vasopressin V2 receptor (P30518 whole entry): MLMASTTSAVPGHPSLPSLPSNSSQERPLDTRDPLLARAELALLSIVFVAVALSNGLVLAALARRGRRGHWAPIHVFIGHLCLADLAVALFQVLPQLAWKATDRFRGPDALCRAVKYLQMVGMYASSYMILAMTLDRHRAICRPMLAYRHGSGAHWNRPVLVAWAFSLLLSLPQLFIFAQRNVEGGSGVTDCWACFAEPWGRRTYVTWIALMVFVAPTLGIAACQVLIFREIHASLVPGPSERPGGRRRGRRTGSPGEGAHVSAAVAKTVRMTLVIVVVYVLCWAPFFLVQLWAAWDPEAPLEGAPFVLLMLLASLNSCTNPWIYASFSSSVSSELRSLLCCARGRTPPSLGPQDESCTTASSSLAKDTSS

Structure (SMILES) | half-life [1] [min] | solubility thermodynamic at 24 h [2] [µg/mL] | Tmax [3] [min] | Activity [4] | Cmax [5] [ng/mL] | Activity [6] | AUC(0-t) [7] [ng·h/mL] | k el [8] [s⁻¹] | Activity [9] | T1/2 [10] [min] | pKi (Vasopressin V2 receptor)
Cc1ccccc1C(=O)Nc1ccc(C(=O)N2CCCC(NCCN3CCOCC3)c3cc(Cl)ccc32)c(C)c1 (stereo not drawn) | 28.2 | 2.3 (≈ 4.1 µM) | 4.98 | Non-Toxic | 679 | Non-Toxic | 544 | 0.000417 | – | – | –
Cc1ccccc1C(=O)Nc1ccc(C(=O)N2CCCC(NCCCN3CCN(C)CC3)c3cc(Cl)ccc32)c(C)c1 (stereo not drawn) | 420 | 2.3 (≈ 3.91 µM) | 4.98 | Non-Toxic | 518 | Non-Toxic | 588 | 2.75e-05 | – | – | –
Cc1ccccc1C(=O)Nc1ccc(C(=O)N2CCCC(NCCCN3CCCCC3)c3cc(Cl)ccc32)c(C)c1 (stereo not drawn) | 234 | 2.3 (≈ 4.01 µM) | 19.8 | Non-Toxic | 419 | Non-Toxic | 1110 | 5e-05 | – | – | –
Cc1ccccc1C(=O)Nc1ccc(C(=O)N2CCCC(NCCCN3CCOCC3)c3cc(Cl)ccc32)c(C)c1 (stereo not drawn) | 258 | 2.3 (≈ 4 µM) | 15 | Non-Toxic | 453 | Non-Toxic | 817 | 4.72e-05 | Non-Toxic | – | –
Cc1ccccc1C(=O)Nc1ccc(C(=O)N2CCCC(O)c3cc(Cl)ccc32)c(C)c1 (stereo not drawn) [TOLVAPTAN] | 246 | 2.3 (≈ 5.12 µM) | 49.8 | Non-Toxic | 394 | Non-Toxic | 824 | 4.72e-05 | – | 23 | –
Cc1ccccc1C(=O)Nc1ccc(C(=O)N2CCCC(NCCCCN3CCOCC3)c3cc(Cl)ccc32)c(C)c1 (stereo not drawn) | 324 | 2.3 (≈ 3.9 µM) | 4.98 | Non-Toxic | 365 | Non-Toxic | 514 | 3.89e-05 | – | – | –
Cc1ccccc1C(=O)Nc1ccc(C(=O)N2CCCC(NCCCc3ccncc3)c3cc(Cl)ccc32)c(C)c1 (stereo not drawn) | 32 | 2.3 (≈ 4.06 µM) | 16.7 | Non-Toxic | 360 | Non-Toxic | 565 | 0.000361 | – | – | –
Cc1ccccc1C(=O)Nc1ccc(C(=O)N2CCCC(NCCC(=O)N3CCOCC3)c3cc(Cl)ccc32)c(C)c1 (stereo not drawn) | 17.4 | 2.3 (≈ 3.9 µM) | 8.4 | Non-Toxic | 783 | Non-Toxic | 450 | 0.000667 | – | – | –
CCN(CC)CCCNC1CCCN(C(=O)c2ccc(NC(=O)c3ccccc3C)cc2C)c2ccc(Cl)cc21 (stereo not drawn) | 174 | 2.3 (≈ 4.1 µM) | 11.4 | Non-Toxic | 426 | Non-Toxic | 527 | 8.33e-05 | – | – | 7.51
Cc1ccccc1C(=O)Nc1ccc(C(=O)N2CCCC(NCCCCCN3CCOCC3)c3cc(Cl)ccc32)c(C)c1 (stereo not drawn) | 450 | 2.3 (≈ 3.81 µM) | 8.4 | Non-Toxic | 157 | Non-Toxic | 450 | 2.58e-05 | – | – | –

From ChEMBL document CHEMBL5154831 (J Med Chem, 2022)
